Entries after “also recorded” stand apart in the source; their conditions may differ.
Assays:
[1] = target: T1, α5β3γ2 GABAA receptors (Homo sapiens, UniProt P18507+P28472+P31644); assay: Two-electrode voltage clamp electrophysiology in Xenopus oocytes in the presence of GABA; assay type: cell-based; conditions: compound 10 µM, GABA 10 µM
T1 construct: expressed in transfected cells; host or cells: Xenopus oocytes (injected with cDNA)
Experimental: Xenopus oocytes were stored in incubation media (pH 7.5), consisting of ND96 supplemented with 2 mM sodium pyruvate, […] gentamycin, and 10 mL heat inactivated HyClone horse serum. Stage 4 to 5 oocytes were injected with 40 nL of cDNA coding for α5, β3, and γ2 subunits in a ratio of 1:1:10, utilizing a Drummond Nanoject III. Injected oocytes were stored at 18 °C and used in electrophysiology studies within 2–7 days of injection.
Whole cell two-electrode voltage clamp (TEVC) recording were conducted on oocytes in the presence of GABA, according to previously reported methods. Oocytes were voltage clamped at a membrane potential of −70 mV. The oocyte recording chamber was continuously perfused with modified bath solution (MBS) with select compound (10 µM) and GABA (10 µM), with a final concentration of 1% DMSO [22, 44]. […] Oocytes were perfused at a rate of 3 mL/min. Electrophysiology recordings were conducted in triplicate compound for each compound. The change of GABAAR activity was determined by comparison of GABAAR potentiation to the EC20 with control saline in the presence of GABA.
Pharmacokinetic parameters were calculated using noncompartmental analysis. Elimination half-life (T1/2) was calculated with R software from the linear regression of the terminal phase of the log serum concentration-time curve. The AUC0→24 was calculated with OriginLab software by trapezoidal analysis of the serum concentration-time plot. Cmax and Tmax were determined directly from observed data. Data are expressed as mean ± SEM. Statistical significance between AUC0→24 among test groups was calculated with an independent t-test (GraphPad software, San Diego, CA, USA). Time to LORR was analyzed by repeated measured ANOVA. Tolerance was determined by mean split in LORR response and confirmed with paired t-test (Week 1 vs. Week 8). Statistical significance of serum concentrations for individual time points was calculated using a two-way analysis of variance (ANOVA) analysis. Post hoc Bonferroni tests were performed when justified. Statistical significance of electrophysiology results compound GABAergic modulation was determined using a paired t-test (Vehicle control vs. Compound, GraphPad software, San Diego CA, USA). p < 0.05 was considered significant.

[2] = Identification of DHM metabolites in serum and brain by UPLC-QqQ/MS; assay type: in vivo, mice; conditions: for Detection of metabolite in brain samples: male and female mice 15 min post DHM IP 50 mg/kg; for Detection of metabolite in serum: mice, following DHM 50 mg/kg IP and PO
Experimental: Eight-week-old male and female C57BL/6J mice (Jackson’s Laboratories, Bar Harbor, ME, USA) were housed 4 mice to a cage (separated by sex) and maintained on 12-h light, 12-h dark cycles (lights on at 0700 h) in the animal facility at the Department of Animal Sciences, Rutgers University. Following 1-week acclimation, animals were given ad libitum access to water and a polyphenol-free diet (PFD; 3.82 kcal/g, 10% fat, 20% protein, 70% carbohydrate; D12450H; Research Diets, Inc., New Brunswick, NJ, USA) for at least 10 days. For PK studies, after an overnight fast, mice were administered 50 mg/kg DHM (dissolved in 0.9% saline with 10% DMSO) by either IP injection or oral gavage. Oral gavage was performed using single-use, sterile plastic feeding tubes for mice (20 ga × 30 mm; cat# FTP-20-30, Instech Laboratories, (Plymouth Meeting, PA, USA). Mice were deeply anesthetized with 5% isoflurane mixed with oxygen, and blood was collected by cardiac puncture. Following cardiac puncture, animals were exsanguinated and transcardial perfusion with 0.9% saline was performed to ensure blood removal from the brain tissue. Blood and brain samples were collected from a total of 85 mice at 0.25, 0.75, 1.5, 3, 6, 12, 24 h (3–4 mice for each sex and timepoint). Tissues were immediately homogenized with 0.2% formic acid at 1:2 (w/v), and frozen at −80 °C until analysis. Blood was centrifuged at 3000× g for 10 min at 4 °C to isolate serum. For efficacy studies, mice (n = 8/sex) were fasted at 5 h prior to Ethanol gavage 5 g/kg (37% Ethanol in water). DHM 50 mg/kg IP (dissolved in 0.9% saline with 10% DMSO) was administered at 0, 15, 45, 90 and 180 min prior to Ethanol oral gavage. Each mouse was tested at each time point 7 days apart over 6-week period. At the time of Ethanol gavage, mice were placed in oversized conical holders (L: 152 mm X W: 37 mm) and observed for ability to return upright upon being placed in a supine position. Duration of LORR was determined by ability to return upright 3 times within 30 s. To determine whether ethanol-induced tolerance developed, one week (Week 1; Baseline) prior to the 6-week repeated DHM dosing study all mice were oral dose with ethanol (5 g/kg) without any IP injection and LORR was measured. Mice were then re-tested in a similar fashion with oral ethanol 1 week after the DHM 6-week period (Week 8; Post). […] All animal studies were approved by the Institutional Animal Care and Use Committee of Rutgers University (Bello; PROTO999900014, OLAW #A3262-01, 15 March 2017) and complied with NIH Guide for the Care and Use of Laboratory Animals.
All serum samples were stored at −80 °C and conditioned to room temperature prior to analysis. An aliquot of 100 µL of serum, 20 µL 4M HCl, and 50 µL of internal standard (IS) solution (417 ng/mL isoquercetin in EtOAc) were combined in an Eppendorf tube. An aliquot of 500 µL of EtOAc was added and samples were vortexed for 30 s. Samples were then centrifuged at 3000× g for 2 min and the supernatant transferred to a glass vial. Samples were extracted 2 more times with EtOAc and the supernatant added to the corresponding vial containing 10 µL of 2% ascorbic acid in methanol (MeOH). Samples were then dried under vacuum, reconstituted with 100 µL of 45% MeOH in water with 0.1% formic acid (FA), centrifuged at 16,000× g for 10 min and transferred to an HPLC vial for analysis.
Whole brain samples were homogenized in FA. All brain homogenates were stored at −80 °C and conditioned to room temperature prior to analysis. An aliquot of 300 µL of brain homogenate was added to 50 µL IS solution (417 ng/mL in EtOAc) and 500 µL of EtOAc in an Eppendorf tube. Samples were then vortexed for 30 s and sonicated for 1 min. Samples were centrifuged for 2 min at 3000× g and the supernatant transferred to a glass vial with 10 µL of 2% ascorbic acid in methanol. Samples were extracted two more times with 500 µL EtOAc and the supernatant transferred to the corresponding vial and dried under vacuum. […]

T1 sequence (P31644 32-462): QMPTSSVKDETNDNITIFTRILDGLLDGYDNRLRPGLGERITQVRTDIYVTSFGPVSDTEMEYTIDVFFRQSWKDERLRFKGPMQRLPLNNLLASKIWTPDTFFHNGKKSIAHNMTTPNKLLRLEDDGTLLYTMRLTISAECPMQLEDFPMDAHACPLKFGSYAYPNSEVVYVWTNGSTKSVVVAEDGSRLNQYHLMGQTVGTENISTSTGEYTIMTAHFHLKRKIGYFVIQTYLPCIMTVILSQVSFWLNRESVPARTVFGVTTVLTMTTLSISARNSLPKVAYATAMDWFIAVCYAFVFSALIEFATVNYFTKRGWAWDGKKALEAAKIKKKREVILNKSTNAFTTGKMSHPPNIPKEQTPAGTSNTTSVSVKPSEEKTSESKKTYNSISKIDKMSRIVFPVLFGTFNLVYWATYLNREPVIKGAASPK
T1 sequence (P28472 26-473): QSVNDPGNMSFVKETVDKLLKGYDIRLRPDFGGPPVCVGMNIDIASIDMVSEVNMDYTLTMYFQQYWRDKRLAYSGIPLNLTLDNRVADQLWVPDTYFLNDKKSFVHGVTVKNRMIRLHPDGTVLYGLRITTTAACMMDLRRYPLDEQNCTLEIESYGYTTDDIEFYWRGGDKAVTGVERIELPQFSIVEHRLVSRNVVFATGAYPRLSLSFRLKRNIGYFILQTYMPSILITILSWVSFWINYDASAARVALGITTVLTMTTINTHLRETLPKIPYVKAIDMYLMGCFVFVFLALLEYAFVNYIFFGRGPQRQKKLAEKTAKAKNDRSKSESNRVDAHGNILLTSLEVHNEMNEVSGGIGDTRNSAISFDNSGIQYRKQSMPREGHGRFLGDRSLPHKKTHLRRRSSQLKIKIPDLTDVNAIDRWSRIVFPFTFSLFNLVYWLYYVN
T1 sequence (P18507 40-475): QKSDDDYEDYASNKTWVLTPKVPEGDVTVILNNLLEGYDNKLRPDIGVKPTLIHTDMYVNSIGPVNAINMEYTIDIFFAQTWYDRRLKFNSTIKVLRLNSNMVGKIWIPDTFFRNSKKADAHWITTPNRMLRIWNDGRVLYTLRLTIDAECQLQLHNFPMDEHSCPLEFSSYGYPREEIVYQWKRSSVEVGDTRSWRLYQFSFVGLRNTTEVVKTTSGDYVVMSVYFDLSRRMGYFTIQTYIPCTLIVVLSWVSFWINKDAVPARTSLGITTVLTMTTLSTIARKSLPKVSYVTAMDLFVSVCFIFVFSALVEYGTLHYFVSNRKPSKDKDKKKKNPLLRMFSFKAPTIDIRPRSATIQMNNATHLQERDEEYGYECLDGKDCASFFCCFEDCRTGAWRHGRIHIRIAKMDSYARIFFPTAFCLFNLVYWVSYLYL

COc1c(O)cc([C@H]2Oc3cc(O)cc(O)c3C(=O)[C@@H]2O)cc1O (racemic) [4′-Me-DHM, 4′-O-methyl-dihydromyricetin]
GABAAR potentiation [1]: −12.6%
Detection of metabolite in brain samples [2]: trace levels
Detection of metabolite in serum [2]: detected

COc1cc(C2Oc3cc(O)cc(O)c3C(=O)C2O)cc(O)c1O (stereo not drawn) [3′-Me-DHM, 3′-O-methyl-dihydromyricetin]
Detection of metabolite in brain samples [2]: trace levels
Detection of metabolite in serum [2]: detected

O=C1c2c(O)cc(O)cc2OC(c2cc(O)cc(O)c2)C1O (stereo not drawn) [4′-DeOH-DHM, 4′-dehydroxy-dihydromyricetin]
GABAAR potentiation [1]: +5.2%
GABAAR potentiation ([1]; mean ± SEM): +5.3 ± 2.0
Detection of metabolite in serum [2]: detected; also recorded: trace levels

COc1cc(C2Oc3cc(O)cc(OC4OC(C(=O)O)C(O)C(O)C4O)c3C(=O)C2O)cc(O)c1O (stereo not drawn) [G-3′-Me-DHM, glucuronide-3′-O-methoxy-dihydromyricetin]
Detection of metabolite in serum [2]: detected

COc1c(O)cc(C2Oc3cc(O)cc(OC4OC(C(=O)O)C(O)C(O)C4O)c3C(=O)C2O)cc1O (stereo not drawn) [G-4′-Me-DHM]
Detection of metabolite in serum [2]: detected

O=C1c2c(OC3OC(C(=O)O)C(O)C(O)C3O)cc(O)cc2OC(c2cc(O)c(O)c(O)c2)C1O (stereo not drawn) [G-DHM, glucuronide-dihydromyricetin]
Detection of metabolite in serum [2]: detected

glucuronide-dehydroxy-dihydromyricetin [G-DeOH-DHM]
Detection of metabolite in serum [2]: detected
